Data on four compounds can be found in patent US20040087512A1, “In-situ formation of CLA” (priority 1998, published 2004).

In assay [1] the test system is C57/B1/6J mice. In words: Example 6: milk and fecal fatty acid composition of mice fed oleic acid isomer diets (GC of FAME). The conditions noted are these: day 10, fed the isomer diet. Format: in vivo. An excerpt: (§1) C57/B1/6J mice fed a control diet (10 wt % fat) were switched to one of four isomer diets at day 6 of lactation after milk collection. Approximately 25% of the dietary fat (5 caloric %) during the treatment period was replaced with one of four specific isomers of oleic acid, either cis-9; cis-11; trans-9 or trams-11, other diet components were identical. The mice consumed these diets ad libitum for four days and were milked again on day 10 of lactation. Milk and fecal fatty acid composition was analyzed as fatty acid methyl esters by GC. Specific isomers were identified by relative retention times. Milk fat percentage was determined by the creamatocrit method and differences between day 6 and day 10 fat percentages were evaluated by a paired t-test.

Assay [2] has as its system C57/B1/6J mice. The experiment in a line: Example 6: milk fat percentage of mice fed oleic acid isomer diets (creamatocrit). Format: in vivo. Particulars: for Milk fat on day 10 versus day 6 of lactation: isomer replaces about 25% of dietary fat, four days.
Excerpt: as §1

For another assay, the system named is cows. The experiment in a line: Milk fat levels in cows ingesting C18 trans 11 fats. Particulars: in vivo.

With `CCCCCCCC/C=C/CCCCCCCC(=O)O` [trans-9], the “Test isomer in milk” value in the assay with C57/B1/6J mice [1] was 5.8 % of the fat. In addition, the “Milk fat on day 10 versus day 6 of lactation” value in the assay with C57/B1/6J mice [2] was “statistically lower”.

As to `CCCCCC/C=C\CCCCCCCCCC(=O)O` [cis-11], the “Test isomer in milk” value in the assay with C57/B1/6J mice [1] was 10 % of the fat. In addition, the “Milk fat on day 10 versus day 6 of lactation” value with C57/B1/6J mice [2] was “numerically lower”.

On to `CCCCCCCC/C=C\CCCCCCCC(=O)O` [cis-9], for which the “Milk fat on day 10 versus day 6 of lactation” value in the assay on C57/B1/6J mice [2] was “identical fat values”.

On to `CCCCCC/C=C/CCCCCCCCCC(=O)O` [trans-11, trans vaccinic acid], for which the “Test isomer in milk” value in the assay with C57/B1/6J mice [1] is 3 % of the fat. Further, the “Effect of ingestion on milk fat levels in cows” value with cows is recorded as “do not reduce milk fat levels”. Further, the “Milk fat on day 10 versus day 6 of lactation” value in the assay on C57/B1/6J mice [2] was “numerically lower”. Besides, the “Effect of ingestion on milk fat in the lactation products of mammals” value in the assay with C57/B1/6J mice [2] (mouse, in vivo) was “does not reduce milk fat”.
